Experimental data taken from patent US9040533B2, “Oxime-substituted-quinoxaline-type piperidine compounds as ORL-1 modulators” (priority 2012, dated 2015).

Legend:
Experiment in all cases: biochemical
CYP2C9 = CYP2C9 (Homo sapiens, UniProt P11712)
CYP3A4 = CYP3A4 (Homo sapiens, UniProt P08684)
CYP1A2 = molecular target: T1, CYP1A2 (Homo sapiens, UniProt P05177)
T1 sequence (P05177 1-516): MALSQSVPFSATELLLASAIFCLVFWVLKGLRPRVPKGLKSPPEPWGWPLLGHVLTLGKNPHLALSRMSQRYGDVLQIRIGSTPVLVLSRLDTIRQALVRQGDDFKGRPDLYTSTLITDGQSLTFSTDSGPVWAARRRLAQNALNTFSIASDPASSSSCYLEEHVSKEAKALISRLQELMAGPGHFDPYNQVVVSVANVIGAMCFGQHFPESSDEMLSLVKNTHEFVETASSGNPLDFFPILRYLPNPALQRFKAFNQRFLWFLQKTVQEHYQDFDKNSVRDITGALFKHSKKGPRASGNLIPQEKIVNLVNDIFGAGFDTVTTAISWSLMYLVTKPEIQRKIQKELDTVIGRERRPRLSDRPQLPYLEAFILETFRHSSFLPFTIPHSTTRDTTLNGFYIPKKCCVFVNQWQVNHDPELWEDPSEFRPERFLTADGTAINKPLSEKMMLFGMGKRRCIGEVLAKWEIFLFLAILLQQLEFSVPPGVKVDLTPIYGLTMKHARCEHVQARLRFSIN

CYP2D6 = CYP2D6 (Homo sapiens, UniProt P10635)
Chain of CYP2D6 (P10635 whole entry): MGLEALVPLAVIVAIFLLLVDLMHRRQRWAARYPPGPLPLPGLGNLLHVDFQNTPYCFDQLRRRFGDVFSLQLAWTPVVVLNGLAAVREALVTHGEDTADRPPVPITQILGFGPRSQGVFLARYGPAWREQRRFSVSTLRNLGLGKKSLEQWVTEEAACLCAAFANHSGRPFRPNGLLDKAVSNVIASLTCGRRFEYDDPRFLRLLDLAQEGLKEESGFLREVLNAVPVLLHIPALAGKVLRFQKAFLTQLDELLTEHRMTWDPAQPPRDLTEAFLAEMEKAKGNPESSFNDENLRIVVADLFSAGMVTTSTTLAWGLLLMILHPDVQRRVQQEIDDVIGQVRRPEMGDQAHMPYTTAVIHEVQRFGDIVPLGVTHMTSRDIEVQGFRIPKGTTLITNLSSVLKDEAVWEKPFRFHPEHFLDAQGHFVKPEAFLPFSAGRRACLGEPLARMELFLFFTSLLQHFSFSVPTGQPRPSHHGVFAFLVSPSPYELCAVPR

CYP2C19 = CYP2C19 (Homo sapiens, UniProt P33261)
Chain of CYP2C19 (P33261 whole entry): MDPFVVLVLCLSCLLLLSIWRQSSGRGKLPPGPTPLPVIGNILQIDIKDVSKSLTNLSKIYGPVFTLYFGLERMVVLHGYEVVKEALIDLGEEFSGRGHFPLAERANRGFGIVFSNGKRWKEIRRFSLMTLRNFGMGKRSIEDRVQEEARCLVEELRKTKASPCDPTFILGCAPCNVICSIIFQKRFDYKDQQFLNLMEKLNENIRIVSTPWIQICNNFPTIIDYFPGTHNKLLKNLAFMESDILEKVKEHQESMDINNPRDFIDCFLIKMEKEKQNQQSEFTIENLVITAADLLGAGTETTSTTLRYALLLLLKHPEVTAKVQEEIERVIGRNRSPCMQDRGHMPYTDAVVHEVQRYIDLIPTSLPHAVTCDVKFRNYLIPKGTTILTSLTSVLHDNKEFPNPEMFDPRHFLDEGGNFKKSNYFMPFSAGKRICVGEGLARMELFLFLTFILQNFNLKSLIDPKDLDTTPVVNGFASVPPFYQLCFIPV

Chain of CYP2C9 (P11712 whole entry): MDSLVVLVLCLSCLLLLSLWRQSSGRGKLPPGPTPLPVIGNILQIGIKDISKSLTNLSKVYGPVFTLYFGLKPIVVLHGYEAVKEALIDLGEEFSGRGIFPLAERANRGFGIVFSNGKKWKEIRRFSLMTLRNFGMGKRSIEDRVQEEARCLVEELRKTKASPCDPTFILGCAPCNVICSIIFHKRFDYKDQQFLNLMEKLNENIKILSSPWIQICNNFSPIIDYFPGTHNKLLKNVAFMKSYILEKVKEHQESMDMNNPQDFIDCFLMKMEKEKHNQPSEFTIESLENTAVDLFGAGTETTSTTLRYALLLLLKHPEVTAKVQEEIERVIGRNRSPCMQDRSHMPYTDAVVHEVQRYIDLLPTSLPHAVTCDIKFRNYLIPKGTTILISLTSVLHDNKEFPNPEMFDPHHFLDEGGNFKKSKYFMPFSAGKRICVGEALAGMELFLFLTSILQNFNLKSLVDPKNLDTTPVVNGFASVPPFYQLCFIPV
Chain of CYP3A4 (P08684 whole entry): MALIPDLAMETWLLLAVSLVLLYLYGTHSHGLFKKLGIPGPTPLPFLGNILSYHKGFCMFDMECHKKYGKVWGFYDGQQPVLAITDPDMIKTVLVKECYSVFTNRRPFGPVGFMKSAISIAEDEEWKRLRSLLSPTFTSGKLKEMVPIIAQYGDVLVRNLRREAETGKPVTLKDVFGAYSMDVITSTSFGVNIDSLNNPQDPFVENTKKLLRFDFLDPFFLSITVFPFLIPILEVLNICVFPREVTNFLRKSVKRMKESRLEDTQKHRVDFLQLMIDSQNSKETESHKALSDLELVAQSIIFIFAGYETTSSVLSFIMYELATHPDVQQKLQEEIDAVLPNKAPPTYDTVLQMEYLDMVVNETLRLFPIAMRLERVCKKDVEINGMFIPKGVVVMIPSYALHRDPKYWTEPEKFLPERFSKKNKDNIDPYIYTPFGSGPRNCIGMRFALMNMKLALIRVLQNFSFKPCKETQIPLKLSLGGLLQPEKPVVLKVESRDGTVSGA

CON=C(CCC(=O)O)c1nc2ccccc2n([C@H]2C[C@H]3CCC[C@@H](C2)N3C2CC3CCCC(C3)C2)c1=O (stereo partly drawn) [Compound 2, 4-[4-((1R,3R)—(S)-9-bicyclo[3.3.1]non-3-yl-9-aza-bicyclo[3.3.1]non-3-yl)-3-oxo-3,4-dihydro-quinoxalin-2-yl]-4-methoxyimino-butyric acid]
IC50 (CYP2C9): > 20 µM | IC50 (CYP3A4): > 20 µM | IC50 (CYP1A2): > 20 µM | IC50 (CYP2D6): > 20 µM | IC50 (CYP2C19): > 20 µM

O=C(O)CCC(=NOCCO)c1nc2ccccc2n([C@H]2C[C@H]3CCC[C@@H](C2)N3C2CC3CCCC(C3)C2)c1=O (stereo partly drawn) [Compound 3, 4-[4-((1R,3R)—(S)-9-Bicyclo[3.3.1]non-3-yl-9-aza-bicyclo[3.3.1]non-3-yl)-3-oxo-3,4-dihydro-quinoxalin-2-yl]-4-(2-hydroxy-ethoxyimino)-butyric acid]
IC50 (CYP2C9): > 20 µM | IC50 (CYP3A4): > 20 µM | IC50 (CYP1A2): > 20 µM | IC50 (CYP2D6): > 20 µM | IC50 (CYP2C19): > 20 µM

O=C(O)/C(=N\OCCO)c1nc2ccccc2n([C@H]2C[C@H]3CCC[C@@H](C2)N3C2CC3CCCC(C3)C2)c1=O (stereo partly drawn) [Compound 4]
IC50 (CYP2C9): > 20 µM | IC50 (CYP3A4): > 20 µM | IC50 (CYP1A2): > 20 µM | IC50 (CYP2D6): > 20 µM | IC50 (CYP2C19): > 20 µM

CCN(CC)C(=O)CO/N=C(\C(=O)O)c1nc2ccccc2n([C@H]2C[C@H]3CCC[C@@H](C2)N3C2CC3CCCC(C3)C2)c1=O (stereo partly drawn) [Compound 5, [4-((1R,3R,7S)-9-bicyclo[3.3.1]non-3-yl-9-aza-bicyclo[3.3.1]non-3-yl)-3-oxo-3,4-dihydro-quinoxalin-2-yl]-diethylcarbamoylmethoxyimino-acetic acid]
IC50 (CYP2C9): > 20 µM | IC50 (CYP3A4): > 20 µM | IC50 (CYP1A2): > 20 µM | IC50 (CYP2D6): > 20 µM | IC50 (CYP2C19): > 20 µM

O=C(O)CCC(=NO)c1nc2ccccc2n([C@H]2C[C@H]3CCC[C@@H](C2)N3C2CC3CCCC(C3)C2)c1=O (stereo partly drawn) [Compound 7, 4-[4-((1R,3R)—(S)-9-bicyclo[3.3.1]non-3-yl-9-aza-bicyclo[3.3.1]non-3-yl)-3-oxo-3,4-dihydro-quinoxalin-2-yl]-4-hydroxyimino-butyric acid]
IC50 (CYP2C9): > 20 µM | IC50 (CYP3A4): > 20 µM | IC50 (CYP1A2): > 20 µM | IC50 (CYP2D6): > 20 µM | IC50 (CYP2C19): > 20 µM

CO/N=C(\CCC(=O)O)c1nc2ccccc2n([C@H]2C[C@H]3CCC[C@@H](C2)N3C2CCCCCCCCC2)c1=O [Compound 9, 4-[4-((1R,3R,7S)-9-cyclodecyl-9-aza-bicyclo[3.3.1]non-3-yl)-3-oxo-3,4-dihydro-quinoxalin-2-yl]-4-methoxyimino-butyric acid]
IC50 (CYP2C9): > 20 µM | IC50 (CYP3A4): > 20 µM | IC50 (CYP1A2): > 20 µM | IC50 (CYP2D6): > 20 µM | IC50 (CYP2C19): > 20 µM

CCO/N=C(\CCC(=O)O)c1nc2ccccc2n([C@H]2C[C@H]3CCC[C@@H](C2)N3C2CC3CCCC(C3)C2)c1=O (stereo partly drawn) [Compound 11, 4-[4-((1R,3R,7S)-9-bicyclo[3.3.1]non-3-yl-9-aza-bicyclo[3.3.1]non-3-yl)-3-oxo-3,4-dihydro-quinoxalin-2-yl]-4-ethoxyimino-butyric acid]
IC50 (CYP2C9): > 20 µM | IC50 (CYP3A4): > 20 µM | IC50 (CYP1A2): > 20 µM | IC50 (CYP2D6): > 20 µM | IC50 (CYP2C19): > 20 µM

CON=C(CCC(=O)O)c1nc2ccccc2n([C@H]2C[C@H]3CC[C@@H](C2)N3C2CC3CCCCC(C3)C2)c1=O (stereo partly drawn) [Compound 12, 4-(4-((1R,3R)-8-(bicyclo[4.3.1]decan-8-yl)-8-azabicyclo[3.2.1]octan-3-yl)-3-oxo-3,4-dihydroquinoxalin-2-yl)-4-(methoxyimino)butanoic acid]
IC50 (CYP2C9): > 20 µM | IC50 (CYP3A4): > 20 µM | IC50 (CYP1A2): > 20 µM | IC50 (CYP2D6): > 20 µM | IC50 (CYP2C19): > 20 µM

O=C(O)C(=NOCCO)c1nc2ccccc2n([C@H]2C[C@H]3CCC[C@@H](C2)N3C2CC3CCCCC(C3)C2)c1=O (stereo partly drawn) [Compound 15]
IC50 (CYP2C9): > 20 µM | IC50 (CYP3A4): > 20 µM | IC50 (CYP1A2): > 20 µM | IC50 (CYP2D6): > 20 µM | IC50 (CYP2C19): > 20 µM

C/C(=N\OCC(=O)O)c1nc2ccccc2n([C@H]2C[C@H]3CCC[C@@H](C2)N3C2CC3CCCC(C3)C2)c1=O (stereo partly drawn) [Compound 16]
IC50 (CYP2C9): > 20 µM | IC50 (CYP3A4): > 20 µM | IC50 (CYP1A2): > 20 µM | IC50 (CYP2D6): > 20 µM | IC50 (CYP2C19): > 20 µM

CON=C(C(=O)O)c1nc2ccccc2n([C@H]2C[C@H]3CCC[C@@H](C2)N3C2CC3CCCCC(C3)C2)c1=O (stereo partly drawn) [Compound 17]
IC50 (CYP2C9): > 20 µM | IC50 (CYP3A4): > 20 µM | IC50 (CYP1A2): > 20 µM | IC50 (CYP2D6): > 20 µM | IC50 (CYP2C19): > 20 µM

O=C(O)CCC(=NO)c1nc2ccccc2n([C@H]2C[C@H]3CCC[C@@H](C2)N3C2CCCCCCCCC2)c1=O [Compound 18]
IC50 (CYP2C9): > 20 µM | IC50 (CYP3A4): > 20 µM | IC50 (CYP1A2): > 20 µM | IC50 (CYP2D6): > 20 µM | IC50 (CYP2C19): > 20 µM

O=C(O)C(=NOCCO)c1nc2ccccc2n([C@H]2C[C@H]3CC[C@@H](C2)N3C2CC3CCCCC(C3)C2)c1=O (stereo partly drawn) [Compound 19]
IC50 (CYP2C9): > 20 µM | IC50 (CYP3A4): > 20 µM | IC50 (CYP1A2): > 20 µM | IC50 (CYP2D6): > 20 µM | IC50 (CYP2C19): > 20 µM

CO/N=C(\C(=O)O)c1nc2ccccc2n([C@H]2C[C@H]3CC[C@@H](C2)N3C2CC3CCCCC(C3)C2)c1=O (stereo partly drawn) [Compound 20, (Z)-2-(4-((1R,3R)-8-(bicyclo[4.3.1]decan-8-yl)-8-azabicyclo[3.2.1]octan-3-yl)-3-oxo-3,4-dihydroquinoxalin-2-yl)-2-(methoxyimino)acetic acid]
IC50 (CYP2C9): > 20 µM | IC50 (CYP3A4): > 20 µM | IC50 (CYP1A2): > 20 µM | IC50 (CYP2D6): > 20 µM | IC50 (CYP2C19): > 20 µM

CC(=NOCC(=O)O)c1nc2ccccc2n(C2CC3CCC(C2)N3C2CC3CCCCC(C3)C2)c1=O (stereo not drawn) [Compound 22]
IC50 (CYP2C9): > 20 µM | IC50 (CYP3A4): > 20 µM | IC50 (CYP1A2): > 20 µM | IC50 (CYP2D6): > 20 µM | IC50 (CYP2C19): > 20 µM

C/C(=N\OCC(=O)O)c1nc2ccccc2n([C@H]2C[C@H]3CCC[C@@H](C2)N3C2CC3CCCCC(C3)C2)c1=O (stereo partly drawn) [Compound 24, 2-((E)-1-(4-((1R,3R)-9-(bicyclo[4.3.1]decan-8-yl)-9-azabicyclo[3.3.1]nonan-3-yl)-3-oxo-3,4-dihydroquinoxalin-2-yl)ethylideneaminooxy)acetic acid]
IC50 (CYP2C9): > 20 µM | IC50 (CYP3A4): > 20 µM | IC50 (CYP1A2): > 20 µM | IC50 (CYP2D6): > 20 µM | IC50 (CYP2C19): > 20 µM

CC[C@@H]1C[C@H]2CC(N3[C@@H]4CCC[C@H]3CC(n3c(=O)c(/C(CCC(=O)O)=N/OC)nc5ccccc53)C4)C[C@@H](C1)C2 (stereo partly drawn) [Compound 25]
IC50 (CYP2C9): > 20 µM | IC50 (CYP3A4): > 20 µM | IC50 (CYP1A2): > 20 µM | IC50 (CYP2D6): > 20 µM

CCO/N=C(\CCC(=O)O)c1nc2ccccc2n([C@H]2C[C@H]3CCC[C@@H](C2)N3C2CC3CC(CC)CC(C3)C2)c1=O (stereo partly drawn) [Compound 26]
IC50 (CYP2C9): > 20 µM | IC50 (CYP3A4): > 20 µM | IC50 (CYP1A2): > 20 µM | IC50 (CYP2D6): > 20 µM

CCN(CC)CCO/N=C(\CCC(=O)O)c1nc2ccccc2n(C2C[C@H]3CCC[C@@H](C2)N3C2C[C@@H]3C[C@@H](C)C[C@H](C2)C3)c1=O (stereo partly drawn) [Compound 27]
IC50 (CYP2C9): > 20 µM | IC50 (CYP3A4): 8.9 µM | IC50 (CYP1A2): > 20 µM | IC50 (CYP2D6): 8.7 µM

CC1CC2CC(C1)CC(N1[C@@H]3CCC[C@H]1C[C@@H](n1c(=O)c(/C(CCC(=O)O)=N/OCCCN(C)C)nc4ccccc41)C3)C2 (stereo partly drawn) [Compound 28]
IC50 (CYP2C9): > 20 µM | IC50 (CYP3A4): 6.1 µM | IC50 (CYP1A2): > 20 µM | IC50 (CYP2D6): 3 µM

CC1CC2CC(C1)CC(N1[C@@H]3CCC[C@H]1C[C@@H](n1c(=O)c(/C(CCC(=O)O)=N/OCCN(C)C)nc4ccccc41)C3)C2 (stereo partly drawn) [Compound 29]
IC50 (CYP2C9): > 20 µM | IC50 (CYP3A4): > 20 µM | IC50 (CYP1A2): > 20 µM | IC50 (CYP2D6): 11.6 µM

CCON=C(C(=O)O)c1nc2ccccc2n([C@H]2C[C@H]3CCC[C@@H](C2)N3C2CC3CCCC(C3)C2)c1=O (stereo partly drawn) [Compound 30]
IC50 (CYP2C9): > 20 µM | IC50 (CYP3A4): > 20 µM | IC50 (CYP1A2): > 20 µM | IC50 (CYP2D6): > 20 µM | IC50 (CYP2C19): > 20 µM

CC(C)ON=C(C(=O)O)c1nc2ccccc2n([C@H]2C[C@H]3CCC[C@@H](C2)N3C2CC3CCCC(C3)C2)c1=O (stereo partly drawn) [Compound 31]
IC50 (CYP2C9): > 20 µM | IC50 (CYP3A4): > 20 µM | IC50 (CYP1A2): > 20 µM | IC50 (CYP2D6): > 20 µM | IC50 (CYP2C19): > 20 µM

CCON=C(C(=O)O)c1nc2ccccc2n([C@H]2C[C@H]3CCC[C@@H](C2)N3C2CC3CCCCC(C3)C2)c1=O (stereo partly drawn) [Compound 32, 2-(4-((1R,3R)-9-(bicyclo[4.3.1]decan-8-yl)-9-azabicyclo[3.3.1]nonan-3-yl)-3-oxo-3,4-dihydroquinoxalin-2-yl)-2-(ethoxyimino)acetic acid]
IC50 (CYP2C9): > 20 µM | IC50 (CYP3A4): > 20 µM | IC50 (CYP1A2): > 20 µM | IC50 (CYP2D6): > 20 µM | IC50 (CYP2C19): > 20 µM

CCC1CC2CC(C1)CC(N1[C@@H]3CCC[C@H]1C[C@@H](n1c(=O)c(/C(CCC(=O)O)=N/OCCN(C)C)nc4ccccc41)C3)C2 (stereo partly drawn) [Compound 34]
IC50 (CYP2C9): > 20 µM | IC50 (CYP3A4): 17.5 µM | IC50 (CYP1A2): 16.1 µM | IC50 (CYP2D6): > 20 µM

CC[C@@H]1C[C@H]2CC(N3[C@@H]4CCC[C@H]3CC(n3c(=O)c(/C(CCC(=O)O)=N/OCCCN(C)C)nc5ccccc53)C4)C[C@@H](C1)C2 (stereo partly drawn) [Compound 35]
IC50 (CYP2C9): > 20 µM | IC50 (CYP3A4): > 20 µM | IC50 (CYP1A2): > 20 µM | IC50 (CYP2D6): > 20 µM
